Experimental data as given in US20260250270A1, “Compound Used as Kinase Inhibitor and Use Thereof” (TYK MEDICINES, INC., priority 2022, published 2026).
≈ marks a conversion by molar mass, not a printed value. One block for each molecule: values may come before it.

How the values were obtained:
[1] = Dynamic water vapor adsorption (DVS) test; type: physicochemical
[2] = Competitive pulping of anhydrous crystalline forms I and V; type: physicochemical; conditions: saturated acetone and acetonitrile solutions, 25° C. or 50° C.
[3] = Stability experiment (left open, XRPD and liquid chromatography); type: physicochemical; conditions: left open at 80° C. 3 days, 60° C. 7 days, 25° C./60% RH 7 days, 40° C./75% RH 7 days, 25° C./90±5% RH 7 days
Method: In the stability experiment, when the free base crystalline form I was left open at 80° C. for 3 days, 60° C. for 7 days, 25° C./60% RH for 7 days, 40° C./75% RH for 7 days, and 25° C./90±5% RH for 7 days, the samples were taken for XRPD detection, respectively.

[4] = Tablet pressing experiment; type: physicochemical; conditions: pressure 30 MPa
[5] = Solubility test by visual inspection in 18 solvents; type: physicochemical; conditions: room temperature
From the text: The solubility of the free base crystalline form I of the compound of Example 1 was crudely determined by visual inspection in 18 solvents at room temperature. The free base crystalline form I was only highly soluble in dichloroethane and dichloromethane and poorly soluble in most of the solvents tested.

Grinding experiment = type: physicochemical
[6] = target: Ba/F3-FL-EGFR-V769-D770 ins ASV (Homo sapiens, UniProt P00533, DUP767-769, cells depend on it); experiment: Cell proliferation inhibition (CellTiter-Glo), EGFR exon 20 insertion engineered cells; type: cell-based; conditions: 72 h, read-out: IC50, Ba/F3-FL-EGFR V769-D770ins ASV
Method: (§1) The selected engineering cells Ba/F3-FL-EGFR-V769-D770 ins ASV, Ba/F3-FL-EGFR-D770-N771 ins SVD, Ba/F3-FL-EGFR-H773-V774 ins NPH, Ba/F3-FL-EGFR-A763-Y764 ins FQEA, Ba/F3-HER2-A775-G776 ins YVMA were provided by Hefei PreceDo Biomedical Technology Co., LTD and were validated prior to use in this study.
(§2) A 20× stock of the compound to be tested was prepared for use, with 9 concentrations in 3-fold gradient dilution, diluted from 1 μM.
(§3) The logarithmic growth phase cell suspension was inoculated into 96-well white cell culture plates with 95 μL volume per well (2000 cells/well). 5 μL of 20× Compound to be tested was added to the plate containing 95 μL of cell suspension according to the plate spreading diagram, and then mixed well. The plate was incubated in a 5% CO2 incubator at 37° C. for 72 h. The proliferation inhibition activity of the compounds was determined by the CellTiter-Glo method, and the fluorescence value per well, RLU, was obtained from the SpectraMax Paradigm reading. Inhibition Rate data were processed using the following formula: Inhibition Rate (Inh %)=100−(RLU compound−RLU blank)/(RLU control−RLU blank)*100%. The cell viability corresponding to different concentrations of compounds was calculated in EXCEL, and then GraphPad Prism software was used to plot the cell viability curve and calculate the IC50 value.

[7] = target: Ba/F3-FL-EGFR-H773-V774 ins NPH (Homo sapiens, UniProt P00533, DUP771-773, cells depend on it); experiment: as above; type: cell-based; conditions: 72 h, read-out: IC50, Ba/F3-FL-EGFR H773-V774ins NPH
Method: as §1, §2, §3

[8] = target: Ba/F3-FL-EGFR-A763-Y764 ins FQEA (Homo sapiens, UniProt P00533, INS763FQEA, cells depend on it); experiment: as above; type: cell-based; conditions: 72 h, read-out: IC50, Ba/F3-FL-EGFR A763-Y764ins FQEA
Method: as §1, §2, §3

[9] = target: Ba/F3-FL-EGFR-D770-N771 ins SVD (Homo sapiens, UniProt P00533, DUP768-770, cells depend on it); experiment: as above; type: cell-based; conditions: 72 h, read-out: IC50, Ba/F3-FL-EGFR D770-N771ins SVD
Method: as §1, §2, §3

[10] = test system: Lung cancer LU0387PDX model; experiment: Pharmacodynamic study on lung cancer LU0387PDX model; type: in vivo, mice; conditions: LU0387 model; for TGI (%): P.O, QD * 13 days
From the text: Lung cancer LU0387PDX model is a commonly used xenograft tumor model from Crown Bioscience, the experimental situation of this model is described as follows: after euthanasia of tumor-bearing mice, the tumor blocks were dissected out in aseptic condition, the blocks were cleaned to remove blood stains and connective tissues and necrotic parts, and the tumors were cut into small pieces of 2*2*2 mm^3, and inoculated with an adapter needle in sterilized experimental mice subcutaneously on the right dorsal side. Tumor growth was regularly observed, and when the tumors grew to an average volume of 100~200 mm^3, mice were randomly grouped according to tumor size and body weight for drug administration. Before the start of drug administration, all animals were weighed and the tumor volume was measured with vernier calipers. Mice were randomly grouped according to tumor volume to ensure that tumor volumes were similar between groups. Three mice in each group were administered orally once daily, and the inoculation site was observed after administration. Tumor volume and mouse body weight were measured twice a week. The experimental design and results were shown in Table 9, wherein P.O referred to administered orally; QD: once a day; TGI (Tumor volume inhibition rate)=(1-Tumor weight of the treatment group/Tumor weight of the control group)*100%.

[11] = test system: Ba/F3 EGFR D770_N771 ins SVD; experiment: In vivo pharmacodynamic study, Ba/F3-EGFR-D770_N771 ins SVD subcutaneous xenograft model; set-up: species or system nude mice; conditions: 30 mg/kg, P.O, QD * 14 days
Method: The experimental design and results were shown in Table 9, wherein P.O referred to administered orally; QD: once a day; TGI (Tumor volume inhibition rate)=(1-Tumor weight of the treatment group/Tumor weight of the control group)*100%. The cell line Ba/F3 EGFR D770_N771 ins SVD was cultured in 37° C., 5% CO2 with RPMI1640+10% fetal bovine serum+1% double antibody, and passaged 2-3 times a week. When the cell saturation was 80-90% and the number of cells met the requirement, the cells were collected. 0.2 mL (1*10^6) cells were subcutaneously inoculated into the right back of 6-8 weeks old female nude mice weighing 18-22 g. When the average tumor volume reached approximately 150-200 mm^3, grouping and drug administration started. Before the start of drug administration, all animals were weighed and the tumor volume was measured with vernier calipers. Mice were randomly grouped according to tumor volume to ensure that tumor volumes were similar between groups. Three mice in each group were administered orally once daily, and the inoculation site was observed after administration. Tumor volume and mouse body weight were measured twice a week.

PC9 = experiment: Cell proliferation inhibition (CellTiter-Glo) on cell line PC9; type: cell-based; conditions: Homo sapiens, PC-9
Method: (§4) The cell lines NCI-H1975 and PC9 selected for the experiments were provided by Sino-American Guanke Biotechnology (Beijing) Co. and were validated prior to use in this study.
(§5) A 10× stock of the compound to be tested was prepared for use, with 9 concentrations in 4-fold gradient dilution, diluted from 10 μM.
(§6) The logarithmic growth phase cell suspension was inoculated into a 96-well culture plate with 90 μL volume per well (2000 cells/well). 10 μL of 10× Compound to be tested was added to the plate according to the plate spreading diagram, and then mixed well. The plate was incubated in a 5% CO2 incubator at 37° C. The proliferation inhibitory activity of the compound was determined by the CellTiter-Glo method. Cell proliferation inhibition rate (Inhibition Rate) data were plotted using GraphPad Prism 8.0 software for cell viability curves and IC50 values were calculated.

NCI-H1975 = experiment: Cell proliferation inhibition (CellTiter-Glo) on cell line NCI-H1975; type: cell-based; conditions: Homo sapiens
Method: as §4, §5, §6

[12] = target: Ba/F3-HER2-A775-G776 ins YVMA (Homo sapiens, UniProt P04626, DUP772-775, cells depend on it); experiment: Cell proliferation inhibition (CellTiter-Glo), HER2 exon 20 insertion engineered cells; type: cell-based; conditions: for GI50: 72 h, CellTiter-Glo, read-out: IC50, Ba/F3-HER2-A775-G776ins YVMA
Method: as §1, §2, §3

Chain of Ba/F3-FL-EGFR-V769-D770 ins ASV (P00533 with tags, fused parts or gaps DUP767-769): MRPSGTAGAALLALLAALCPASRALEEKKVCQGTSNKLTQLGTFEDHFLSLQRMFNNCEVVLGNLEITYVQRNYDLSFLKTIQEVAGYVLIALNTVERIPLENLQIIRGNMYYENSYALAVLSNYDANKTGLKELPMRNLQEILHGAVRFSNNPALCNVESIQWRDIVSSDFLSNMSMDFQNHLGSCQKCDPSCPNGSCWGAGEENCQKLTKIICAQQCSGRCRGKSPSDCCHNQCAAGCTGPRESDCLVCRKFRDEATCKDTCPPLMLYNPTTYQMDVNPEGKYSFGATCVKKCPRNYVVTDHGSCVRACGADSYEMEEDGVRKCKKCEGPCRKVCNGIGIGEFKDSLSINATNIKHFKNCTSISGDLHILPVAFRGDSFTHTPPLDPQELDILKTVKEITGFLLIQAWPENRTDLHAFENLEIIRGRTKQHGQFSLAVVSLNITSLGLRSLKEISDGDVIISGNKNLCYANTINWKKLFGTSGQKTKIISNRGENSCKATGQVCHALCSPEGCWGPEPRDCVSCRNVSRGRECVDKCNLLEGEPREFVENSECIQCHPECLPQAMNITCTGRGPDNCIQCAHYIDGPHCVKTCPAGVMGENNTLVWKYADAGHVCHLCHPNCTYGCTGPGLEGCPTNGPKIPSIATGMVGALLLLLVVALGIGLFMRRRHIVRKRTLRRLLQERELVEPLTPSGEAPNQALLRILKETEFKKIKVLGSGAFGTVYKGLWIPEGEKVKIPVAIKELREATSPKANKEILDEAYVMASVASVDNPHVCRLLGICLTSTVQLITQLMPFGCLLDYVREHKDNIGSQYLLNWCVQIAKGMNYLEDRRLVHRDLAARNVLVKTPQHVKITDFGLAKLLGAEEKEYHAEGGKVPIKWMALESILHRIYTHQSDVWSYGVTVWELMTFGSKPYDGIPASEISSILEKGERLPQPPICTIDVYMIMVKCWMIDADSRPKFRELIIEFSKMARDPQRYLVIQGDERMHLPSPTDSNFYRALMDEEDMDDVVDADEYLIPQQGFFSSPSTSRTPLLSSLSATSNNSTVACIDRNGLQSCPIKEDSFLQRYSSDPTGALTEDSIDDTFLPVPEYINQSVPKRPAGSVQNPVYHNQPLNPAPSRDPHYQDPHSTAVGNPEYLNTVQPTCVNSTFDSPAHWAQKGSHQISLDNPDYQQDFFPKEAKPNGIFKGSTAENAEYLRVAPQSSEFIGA
Chain of Ba/F3-FL-EGFR-H773-V774 ins NPH (P00533 with tags, fused parts or gaps DUP771-773): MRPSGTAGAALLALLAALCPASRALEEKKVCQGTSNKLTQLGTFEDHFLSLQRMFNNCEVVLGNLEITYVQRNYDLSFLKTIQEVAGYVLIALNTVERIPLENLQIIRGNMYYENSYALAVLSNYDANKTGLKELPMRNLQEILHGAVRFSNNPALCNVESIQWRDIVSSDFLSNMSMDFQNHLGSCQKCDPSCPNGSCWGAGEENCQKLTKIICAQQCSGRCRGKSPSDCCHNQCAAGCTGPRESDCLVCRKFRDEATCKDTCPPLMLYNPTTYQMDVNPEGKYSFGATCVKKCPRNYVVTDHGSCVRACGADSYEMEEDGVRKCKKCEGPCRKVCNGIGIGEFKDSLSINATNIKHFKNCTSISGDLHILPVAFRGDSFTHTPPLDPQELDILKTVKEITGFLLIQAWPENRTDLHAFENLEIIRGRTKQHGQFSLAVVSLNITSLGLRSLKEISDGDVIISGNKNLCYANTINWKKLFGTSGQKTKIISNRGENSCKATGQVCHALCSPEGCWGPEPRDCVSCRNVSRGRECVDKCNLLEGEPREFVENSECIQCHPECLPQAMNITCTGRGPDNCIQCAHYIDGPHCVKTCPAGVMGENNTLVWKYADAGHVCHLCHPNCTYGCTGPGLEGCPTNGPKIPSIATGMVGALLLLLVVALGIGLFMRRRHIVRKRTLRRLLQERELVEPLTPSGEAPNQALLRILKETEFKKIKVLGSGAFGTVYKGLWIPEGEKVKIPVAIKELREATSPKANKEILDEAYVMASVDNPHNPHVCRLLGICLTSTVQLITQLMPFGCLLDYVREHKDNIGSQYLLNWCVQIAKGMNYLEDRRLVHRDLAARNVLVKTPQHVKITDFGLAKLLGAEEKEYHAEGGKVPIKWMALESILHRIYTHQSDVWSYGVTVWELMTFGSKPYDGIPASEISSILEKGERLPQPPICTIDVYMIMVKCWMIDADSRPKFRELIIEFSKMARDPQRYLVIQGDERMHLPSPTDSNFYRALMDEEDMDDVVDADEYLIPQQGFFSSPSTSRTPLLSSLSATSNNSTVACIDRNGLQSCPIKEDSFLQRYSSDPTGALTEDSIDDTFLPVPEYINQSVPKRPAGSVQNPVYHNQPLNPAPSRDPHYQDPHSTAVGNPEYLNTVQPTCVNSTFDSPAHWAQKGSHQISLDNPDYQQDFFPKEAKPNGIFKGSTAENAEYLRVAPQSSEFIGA
Chain of Ba/F3-FL-EGFR-A763-Y764 ins FQEA (P00533 with tags, fused parts or gaps INS763FQEA): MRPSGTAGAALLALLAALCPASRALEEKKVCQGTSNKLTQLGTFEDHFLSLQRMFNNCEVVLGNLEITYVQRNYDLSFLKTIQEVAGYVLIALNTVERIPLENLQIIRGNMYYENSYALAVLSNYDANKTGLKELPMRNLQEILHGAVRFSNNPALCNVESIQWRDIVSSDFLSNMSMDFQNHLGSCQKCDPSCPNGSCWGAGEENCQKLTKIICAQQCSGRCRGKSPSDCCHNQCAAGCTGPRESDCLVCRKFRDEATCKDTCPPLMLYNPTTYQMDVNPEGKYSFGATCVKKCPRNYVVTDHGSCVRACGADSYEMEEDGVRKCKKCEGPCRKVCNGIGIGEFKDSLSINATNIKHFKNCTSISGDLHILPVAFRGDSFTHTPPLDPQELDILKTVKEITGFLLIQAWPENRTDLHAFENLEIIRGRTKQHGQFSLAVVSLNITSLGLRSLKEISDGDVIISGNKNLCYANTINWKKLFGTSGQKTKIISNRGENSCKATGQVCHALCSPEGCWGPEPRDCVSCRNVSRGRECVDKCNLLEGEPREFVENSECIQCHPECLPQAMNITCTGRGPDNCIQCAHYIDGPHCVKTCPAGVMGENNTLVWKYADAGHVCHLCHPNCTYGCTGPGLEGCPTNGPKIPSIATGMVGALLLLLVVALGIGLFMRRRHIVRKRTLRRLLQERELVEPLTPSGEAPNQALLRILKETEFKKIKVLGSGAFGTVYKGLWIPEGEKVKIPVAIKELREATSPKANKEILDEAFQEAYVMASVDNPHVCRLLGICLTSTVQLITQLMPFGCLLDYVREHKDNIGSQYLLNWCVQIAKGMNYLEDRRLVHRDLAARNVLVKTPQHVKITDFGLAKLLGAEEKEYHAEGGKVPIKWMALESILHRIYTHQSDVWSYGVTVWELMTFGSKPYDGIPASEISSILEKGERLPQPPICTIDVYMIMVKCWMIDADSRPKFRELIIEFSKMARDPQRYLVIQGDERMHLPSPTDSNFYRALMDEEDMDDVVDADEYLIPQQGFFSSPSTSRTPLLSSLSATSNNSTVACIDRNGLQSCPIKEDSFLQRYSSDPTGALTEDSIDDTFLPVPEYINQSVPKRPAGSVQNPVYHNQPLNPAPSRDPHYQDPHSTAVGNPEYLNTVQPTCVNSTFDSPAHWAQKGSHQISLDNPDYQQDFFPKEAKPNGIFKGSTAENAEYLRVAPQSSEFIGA
Chain of Ba/F3-FL-EGFR-D770-N771 ins SVD (P00533 with tags, fused parts or gaps DUP768-770): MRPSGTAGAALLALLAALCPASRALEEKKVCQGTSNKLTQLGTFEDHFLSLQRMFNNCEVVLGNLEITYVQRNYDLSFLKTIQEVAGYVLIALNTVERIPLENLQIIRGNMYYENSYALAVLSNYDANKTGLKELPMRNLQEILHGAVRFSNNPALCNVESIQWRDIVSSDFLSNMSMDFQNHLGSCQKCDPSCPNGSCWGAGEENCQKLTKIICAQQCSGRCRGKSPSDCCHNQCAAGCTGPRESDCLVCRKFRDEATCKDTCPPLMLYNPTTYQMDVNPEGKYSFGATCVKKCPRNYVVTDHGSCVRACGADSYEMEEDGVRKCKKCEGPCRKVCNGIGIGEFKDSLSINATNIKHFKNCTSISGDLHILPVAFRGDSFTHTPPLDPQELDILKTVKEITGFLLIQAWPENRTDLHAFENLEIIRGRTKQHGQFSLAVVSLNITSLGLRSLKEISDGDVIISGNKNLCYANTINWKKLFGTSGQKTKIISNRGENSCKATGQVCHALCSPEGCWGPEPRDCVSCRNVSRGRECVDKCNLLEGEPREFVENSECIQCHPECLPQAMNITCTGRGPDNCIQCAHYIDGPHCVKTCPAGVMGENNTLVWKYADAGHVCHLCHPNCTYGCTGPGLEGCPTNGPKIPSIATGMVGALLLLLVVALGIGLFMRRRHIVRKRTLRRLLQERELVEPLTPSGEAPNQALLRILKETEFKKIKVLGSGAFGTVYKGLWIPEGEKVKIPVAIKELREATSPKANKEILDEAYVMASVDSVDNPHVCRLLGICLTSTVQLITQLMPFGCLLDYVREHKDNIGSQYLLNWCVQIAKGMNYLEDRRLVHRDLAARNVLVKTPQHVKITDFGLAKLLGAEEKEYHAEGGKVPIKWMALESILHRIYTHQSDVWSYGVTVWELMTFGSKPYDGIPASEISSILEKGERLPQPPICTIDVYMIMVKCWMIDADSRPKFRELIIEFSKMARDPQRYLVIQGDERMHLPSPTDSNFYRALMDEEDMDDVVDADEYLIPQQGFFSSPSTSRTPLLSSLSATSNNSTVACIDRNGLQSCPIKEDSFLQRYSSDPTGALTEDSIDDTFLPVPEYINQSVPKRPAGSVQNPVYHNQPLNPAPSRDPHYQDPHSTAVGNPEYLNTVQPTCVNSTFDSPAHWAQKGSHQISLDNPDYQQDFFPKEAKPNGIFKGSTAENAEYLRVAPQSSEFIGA

hygroscopicity [1]: slightly hygroscopic
weight gain by water absorption ([1]; at 80% RH): 0.66%
stability, change in liquid chromatography results [3]: no change
stability, change of crystalline form by XRPD [3]: no significant change
crystallinity after tablet pressing [4]: crystallinity slightly decreased
solubility ([5]; organic solvent or mixture, thermodynamic from solid, 1,4-dioxane): < 270 µg/mL
solubility ([5]; organic solvent or mixture, thermodynamic from solid, Acetone): 2220 to 4440 µg/mL (≈ 3.64 to 7.28 mM)
solubility ([5]; organic solvent or mixture, thermodynamic from solid, Acetonitrile): 930 to 1010 µg/mL (≈ 1.53 to 1.66 mM)
solubility ([5]; organic solvent or mixture, thermodynamic from solid, Butanone): 2780 to 4440 µg/mL (≈ 4.56 to 7.28 mM)
solubility ([5]; organic solvent or mixture, thermodynamic from solid, Cyclohexane): < 330 µg/mL
solubility ([5]; organic solvent or mixture, thermodynamic from solid, Dichloroethane): 61800 to 124000 µg/mL (≈ 101 to 203 mM)
solubility ([5]; organic solvent or mixture, thermodynamic from solid, Dichloromethane): > 107000 µg/mL
solubility ([5]; organic solvent or mixture, thermodynamic from solid, Dimethylsulfoxide): 2600 to 2930 µg/mL (≈ 4.26 to 4.81 mM)
solubility ([5]; organic solvent or mixture, thermodynamic from solid, Ethanol): < 300 µg/mL
solubility ([5]; organic solvent or mixture, thermodynamic from solid, Ethyl acetate): < 290 µg/mL
solubility ([5]; organic solvent or mixture, thermodynamic from solid, Isopropanol): < 350 µg/mL
solubility ([5]; organic solvent or mixture, thermodynamic from solid, Isopropyl acetate): < 300 µg/mL
solubility ([5]; organic solvent or mixture, thermodynamic from solid, Methanol): < 400 µg/mL
solubility ([5]; organic solvent or mixture, thermodynamic from solid, N-Methyl pyrrolidone): 18200 to 27400 µg/mL (≈ 29.9 to 44.9 mM)
solubility ([5]; organic solvent or mixture, thermodynamic from solid, Tert-butyl methyl ether): < 330 µg/mL
solubility ([5]; organic solvent or mixture, thermodynamic from solid, Tetrahydrofuran): 2550 to 3190 µg/mL (≈ 4.18 to 5.23 mM)
solubility ([5]; organic solvent or mixture, thermodynamic from solid, n-Heptane): < 300 µg/mL
solubility ([5]; thermodynamic from solid, Water): < 270 µg/mL
solid form after dry grinding (Grinding experiment; 5 min of dry grinding): transformed into amorphous state
crystallinity after wet grinding with ethanol (Grinding experiment; 5 min of wet grinding with ethanol): slight decrease in crystallinity
crystallinity after wet grinding with water (Grinding experiment; 5 min of wet grinding with water): no significant change in crystallinity
SMILES: C=CC(=O)Nc1cc(Nc2ncc(C(=O)OC(C)C)c(-c3cn(C)c4ccccc34)n2)c(OC)cc1N(C)[C@@H]1[C@@H]2CN(C)C[C@@H]21 [free base crystalline form I]
thermodynamic stability versus free base crystalline form V [2]: thermodynamically stable crystalline form

GI50 [6]: ≤ 30 nM
GI50 [7]: ≤ 30 nM
GI50 [8]: ≤ 30 nM
GI50 [9]: ≤ 30 nM
IC50 (PC9): ≤ 30 nM
IC50 (NCI-H1975): ≤ 30 nM
GI50 [12]: ≤ 30 nM
SMILES: C=CC(=O)Nc1cc(Nc2ncc(C(=O)OC(C)C)c(-c3cn(C)c4ccccc34)n2)c(OC)cc1N(C)[C@@H]1[C@@H]2CN(C)C[C@@H]21 [Example 1]
TGI (%) ([10]; 30 mg/kg): 79.01%
TGI (%) ([10]; 50 mg/kg): 97.44%
efficacy compared with controls (FIG. 1, tumor volume) ([10]; same dose): superior to that of TAK-788 and DZD9008
TGI (%) [11]: 61.08%

GI50 [6]: ≤ 30 nM
GI50 [7]: ≤ 30 nM
GI50 [8]: ≤ 30 nM
GI50 [9]: ≤ 30 nM
SMILES: [2H]C([2H])([2H])N(c1cc(OC)c(Nc2ncc(C(=O)OC(C)C)c(-c3cn(C)c4ccccc34)n2)cc1NC(=O)C=C)[C@@H]1[C@@H]2CN(C)C[C@@H]21 [Example 3]

Continued, molecule first:

SMILES: [2H]C([2H])([2H])n1cc(-c2nc(Nc3cc(NC(=O)C=C)c(N(C)[C@@H]4[C@@H]5CN(C)C[C@@H]54)cc3OC)ncc2C(=O)OC(C)C)c2ccccc21 [Example 2]
GI50 [6]: ≤ 30 nM
GI50 [7]: ≤ 30 nM
GI50 [8]: ≤ 30 nM
GI50 [9]: ≤ 30 nM

SMILES: C=CC(=O)Nc1cc(Nc2ncc(-c3nnc(C)o3)c(-c3cn(C)c4ccccc34)n2)c(OC)cc1N(C)[C@@H]1[C@@H]2CN(C)C[C@@H]21 [Example 5]
TGI (%) ([10]; 30 mg/kg): 66.90%
TGI (%) [11]: 59.51%
GI50 [6]: ≤ 30 nM
GI50 [7]: ≤ 30 nM
GI50 [8]: ≤ 30 nM
GI50 [9]: ≤ 30 nM
IC50 (PC9): ≤ 30 nM
IC50 (NCI-H1975): ≤ 30 nM
GI50 [12]: ≤ 30 nM
cellular activity against HER2 exon 20 insertion mutations compared with controls ([12]; Table 7): comparable to that of TAK-788 and superior to that of DZD9008

SMILES: [2H]C([2H])([2H])N(c1cc(OC)c(Nc2ncc(-c3nnc(C)o3)c(-c3cn(C)c4ccccc34)n2)cc1NC(=O)C=C)[C@@H]1[C@@H]2CN(C)C[C@@H]21 [Example 7]
GI50 [6]: ≤ 30 nM
GI50 [7]: ≤ 30 nM
GI50 [8]: ≤ 30 nM
GI50 [9]: ≤ 30 nM

SMILES: C=CC(=O)Nc1cc(Nc2ncc(-c3nnc(C)o3)c(-c3cn(C)c4ccccc34)n2)c(OC)cc1N(C)[C@H]1[C@@H]2CN(C)C[C@@H]21 [Example 18, reference compound]
TGI (%) [11]: 32.22%

SMILES: [2H]C([2H])([2H])N1C[C@@H]2[C@H](C1)[C@@H]2N(C)c1cc(OC)c(Nc2ncc(-c3nnc(C)o3)c(-c3cn(C)c4ccccc34)n2)cc1NC(=O)C=C [Example 8]
GI50 [6]: ≤ 30 nM
GI50 [7]: ≤ 30 nM
GI50 [8]: ≤ 30 nM
GI50 [9]: ≤ 30 nM

SMILES: C=CC(=O)Nc1cc(Nc2ncc(C(=O)OC(C)C)c(-c3cn(C)c4ccccc34)n2)c(OC)cc1N(C)[C@H]1[C@@H]2CN(C)C[C@@H]21 [Example 40, reference compound]
TGI (%) [11]: 37.84%
